Laboratory results taken from PubChem BioAssay AID1963984 (Molecular Pharmacology Branch, DTP, NCI, 2024).

System: 233499-124-R-J3-PDC spheroids with HUVEC/MSC, viability
Experiment: Anticancer human tumor 233499-124-R-J3-PDC patient-derived colon adenocarcinoma cell line growth inhibition [PI3K]
Settings: for IC50: curve of first compound; for viability, T/C: stronger effect = lower value
Summary of the method: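 Viability of mixed-cell spheroids was determined after exposure to pairwise combinations, one partner being inavolisib, alpelisib, duvelisib or copanlisib. Highest tested concentration matched clinical Cmax where known and 10 microM where not, descending in half-log steps.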

[1] = second compound 0.0316 µM, first compound 0.00316 µM
[2] = second compound 0.0316 µM, first compound 0.01 µM
[3] = second compound 0.0316 µM, first compound 0.0316 µM
[4] = second compound 0.0316 µM, first compound 0.1 µM
[5] = second compound 0.0316 µM, first compound 0.316 µM
[6] = second compound 0.0316 µM, first compound 1 µM
[7] = second compound 0.1 µM, first compound 0.00316 µM
[8] = second compound 0.1 µM, first compound 0.01 µM
[9] = second compound 0.1 µM, first compound 0.0316 µM
[10] = second compound 0.1 µM, first compound 0.1 µM
[11] = second compound 0.1 µM, first compound 0.316 µM
[12] = second compound 0.1 µM, first compound 1 µM
[13] = second compound 0.316 µM, first compound 0.00316 µM
[14] = second compound 0.316 µM, first compound 0.01 µM
[15] = second compound 0.316 µM, first compound 0.0316 µM
[16] = second compound 0.316 µM, first compound 0.1 µM
[17] = second compound 0.316 µM, first compound 0.316 µM
[18] = second compound 0.316 µM, first compound 1 µM
[19] = second compound 1 µM, first compound 0.00316 µM
[20] = second compound 1 µM, first compound 0.01 µM
[21] = second compound 1 µM, first compound 0.0316 µM
[22] = second compound 1 µM, first compound 0.1 µM
[23] = second compound 1 µM, first compound 0.316 µM
[24] = second compound 1 µM, first compound 1 µM
[25] = second compound 3.16 µM, first compound 0.00316 µM
[26] = second compound 3.16 µM, first compound 0.01 µM
[27] = second compound 3.16 µM, first compound 0.0316 µM
[28] = second compound 3.16 µM, first compound 0.1 µM
[29] = second compound 3.16 µM, first compound 0.316 µM
[30] = second compound 3.16 µM, first compound 1 µM
[31] = second compound 10 µM, first compound 0.00316 µM
[32] = second compound 10 µM, first compound 0.01 µM
[33] = second compound 10 µM, first compound 0.0316 µM
[34] = second compound 10 µM, first compound 0.1 µM
[35] = second compound 10 µM, first compound 0.316 µM
[36] = second compound 10 µM, first compound 1 µM
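Further: spheroids exposed to agents for seven days before readout.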
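Wherever viability, T/C is given: percent viability relative to DMSO vehicle control taken as 100%.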

In the case of `CCN1CCN(Cc2ccc(Nc3ncc(F)c(-c4cc(F)c5nc(C)n(C(C)C)c5c4)n3)nc2)CC1` + Cc1nc(NC(=O)N2CCCC2C(N)=O)sc1-c1ccnc(C(C)(C)C(F)(F)F)c1, the IC50 (second compound 0.0316 µM) is reported as 547 nM, the IC50 (second compound 0.1 µM) is reported as 658 nM and the IC50 (second compound 0.316 µM) is reported as 164 nM. It also gave an IC50 (second compound 1 µM) of 36 nM, an IC50 (second compound 3.16 µM) of 7.26 nM and an IC50 (second compound 10 µM) of less than 3.16 nM. It also gave a viability, T/C [1] of 67.3%, a viability, T/C [2] of 90.7% and a viability, T/C [3] of 74%. The viability, T/C [4] was 79.7%, the viability, T/C [5] was 59.5% and the viability, T/C [6] was 39.6%. For the same compound, the viability, T/C [7] was 72.5%, the viability, T/C [8] was 86.7% and the viability, T/C [9] was 67.5%. It also gave a viability, T/C [10] of 52.6%, a viability, T/C [11] of 66.6% and a viability, T/C [12] of 43.4%. It also gave a viability, T/C [13] of 94.8%, a viability, T/C [14] of 79.2% and a viability, T/C [15] of 71.9%. The viability, T/C [16] was 47.6%, the viability, T/C [17] was 49.5% and the viability, T/C [18] was 30.7%. For the same compound, the viability, T/C [19] was 52.5%, the viability, T/C [20] was 49.5% and the viability, T/C [21] was 49.7%. The viability, T/C [22] was 49.2%, the viability, T/C [23] was 38.4% and the viability, T/C [24] was 21.3%. It also gave a viability, T/C [25] of 55.4%, a viability, T/C [26] of 49.1% and a viability, T/C [27] of 37.7%. For the same compound, the viability, T/C [28] was 36.6%, the viability, T/C [29] was 25% and the viability, T/C [30] was 24.4%. It also gave a viability, T/C [31] of 28.1%, a viability, T/C [32] of 21.9% and a viability, T/C [33] of 27.6%. For the same compound, the viability, T/C [34] was 21.1%, the viability, T/C [35] was 21.3% and the viability, T/C [36] was 20.7%.

Compound `C[C@@H](NC(=O)c1ncnc(N)c1Cl)c1ncc(C(=O)Nc2cc(C(F)(F)F)c(Cl)cn2)s1` + Cc1nc(NC(=O)N2CCCC2C(N)=O)sc1-c1ccnc(C(C)(C)C(F)(F)F)c1 has an IC50 (second compound 0.0316 µM) greater than 10000 nM, an IC50 (second compound 0.1 µM) greater than 10000 nM and an IC50 (second compound 0.316 µM) greater than 10000 nM. It also gave an IC50 (second compound 1 µM) of 9680 nM, an IC50 (second compound 3.16 µM) of 458 nM and an IC50 (second compound 10 µM) of less than 31.6 nM. It also gave a viability, T/C [3] of 101%, a viability, T/C [4] of 75.5% and a viability, T/C [5] of 113%. For the same compound, the viability, T/C [6] was 136%, the viability, T/C (second compound 0.0316 µM, first compound 3.16 µM) was 112% and the viability, T/C (second compound 0.0316 µM, first compound 10 µM) was 106%. For the same compound, the viability, T/C [9] was 109%, the viability, T/C [10] was 90.3% and the viability, T/C [11] was 104%. It also gave a viability, T/C [12] of 110%, a viability, T/C (second compound 0.1 µM, first compound 3.16 µM) of 104% and a viability, T/C (second compound 0.1 µM, first compound 10 µM) of 54.8%. It also gave a viability, T/C [15] of 111%, a viability, T/C [16] of 104% and a viability, T/C [17] of 87.7%. For the same compound, the viability, T/C [18] was 63.9%, the viability, T/C (second compound 0.316 µM, first compound 3.16 µM) was 92.8% and the viability, T/C (second compound 0.316 µM, first compound 10 µM) was 79.4%. The viability, T/C [21] was 90.4%, the viability, T/C [22] was 93.3% and the viability, T/C [23] was 69%. The viability, T/C [24] was 94.4%, the viability, T/C (second compound 1 µM, first compound 3.16 µM) was 99.4% and the viability, T/C (second compound 1 µM, first compound 10 µM) was 48.8%. The viability, T/C [27] was 51.5%, the viability, T/C [28] was 71.5% and the viability, T/C [29] was 52%. The viability, T/C [30] was 42.5%, the viability, T/C (second compound 3.16 µM, first compound 3.16 µM) was 37.9% and the viability, T/C (second compound 3.16 µM, first compound 10 µM) was 35.8%. For the same compound, the viability, T/C [33] was 33.1%, the viability, T/C [34] was 29.2% and the viability, T/C [35] was 34.1%. It also gave a viability, T/C [36] of 38%, a viability, T/C (second compound 10 µM, first compound 3.16 µM) of 14.4% and a viability, T/C (second compound 10 µM, first compound 10 µM) of 14%.

`Cn1ncnc1[C@H]1c2n[nH]c(=O)c3cc(F)cc(c23)N[C@@H]1c1ccc(F)cc1` + Cc1nc(NC(=O)N2CCCC2C(N)=O)sc1-c1ccnc(C(C)(C)C(F)(F)F)c1 was tested, and the IC50 (second compound 0.0316 µM) was greater than 100 nM, the IC50 (second compound 0.1 µM) was greater than 100 nM and the IC50 (second compound 0.316 µM) was greater than 100 nM. The IC50 (second compound 1 µM) was greater than 100 nM, the IC50 (second compound 3.16 µM) was 1.84 nM and the IC50 (second compound 10 µM) was less than 0.316 nM. It also gave a viability, T/C (second compound 0.0316 µM, first compound 0.000316 µM) of 101%, a viability, T/C (second compound 0.0316 µM, first compound 0.001 µM) of 97.2% and a viability, T/C [1] of 95.9%. For the same compound, the viability, T/C [2] was 109%, the viability, T/C [3] was 81.1% and the viability, T/C [4] was 94.8%. For the same compound, the viability, T/C (second compound 0.1 µM, first compound 0.000316 µM) was 106%, the viability, T/C (second compound 0.1 µM, first compound 0.001 µM) was 77.2% and the viability, T/C [7] was 85.2%. For the same compound, the viability, T/C [8] was 91.3%, the viability, T/C [9] was 75.6% and the viability, T/C [10] was 90.3%. It also gave a viability, T/C (second compound 0.316 µM, first compound 0.000316 µM) of 81.5%, a viability, T/C (second compound 0.316 µM, first compound 0.001 µM) of 89.5% and a viability, T/C [13] of 85.3%. The viability, T/C [14] was 73.8%, the viability, T/C [15] was 58.4% and the viability, T/C [16] was 54.7%. For the same compound, the viability, T/C (second compound 1 µM, first compound 0.000316 µM) was 87.2%, the viability, T/C (second compound 1 µM, first compound 0.001 µM) was 65% and the viability, T/C [19] was 50.3%. It also gave a viability, T/C [20] of 57.4%, a viability, T/C [21] of 55.5% and a viability, T/C [22] of 65%. The viability, T/C (second compound 3.16 µM, first compound 0.000316 µM) was 52.6%, the viability, T/C (second compound 3.16 µM, first compound 0.001 µM) was 43.5% and the viability, T/C [25] was 61.8%. For the same compound, the viability, T/C [26] was 41%, the viability, T/C [27] was 49.4% and the viability, T/C [28] was 44.7%. The viability, T/C (second compound 10 µM, first compound 0.000316 µM) was 28.2%, the viability, T/C (second compound 10 µM, first compound 0.001 µM) was 30.7% and the viability, T/C [31] was 37.6%. The viability, T/C [32] was 29.1%, the viability, T/C [33] was 22.8% and the viability, T/C [34] was 22.5%.
